For data set [1], the target named is T1, MMP-13 (Homo sapiens, UniProt P45452).
T1 construct: made in house; host or cells: COS-1 cells (vector pcDL-SRα296, culture supernatant)
Briefly: MMP-13 inhibition test (in vitro). The settings on record: recombinant active MMP-13, fluorescent substrate 20 μM, 1 hour at 37° C. Type of data set: biochemical. An excerpt: MMP-13 exists in chondrocytes and chondrosarcoma cells, and the DNA sequence corresponding to the amino acid sequence of its precursor (proMMP-13) has been reported by Freije et al. (Freije, J. M. P., et al., J. Biol. Chem., vol. 269, 16766-16773, 1994). Therefore, proMMP-13 can be expressed by acquiring cDNA of proMMP-13 from chondrocytes and chondrosarcoma cells in accordance with conventional methods, by incorporating this into an ordinarily used vector, and by introducing this vector into suitable cells to transform the cells.
An MMP-13 inhibition test can be conducted by, for example, treating recombinant proMMP-13 obtained in the above manner with p-aminophenyl-mercuric(II) acetate (APMA) to convert proMMP-13 to active MMP-13, and then using this as enzyme to measure MMP-13 activity in the presence or absence of a test compound using a fluorescent substrate.
mRNA was isolated from human chondrosarcoma HCS-2/8, which is a chondrosarcoma cell line established by Takigawa et al. (Jpn. J. Cancer. Res., vol. 85, 364-371, 1994), in accordance with conventional methods, and cDNA of proMMP-13 was acquired by reverse transcription polymerase chain reaction (RT-PCR). 5′-[…]-3′ (Sequence No. 1 of the Sequence listing) and 5′-[…]-3′ (Sequence No. 2 of the Sequence listing), which contain the restriction enzyme cleavage site sacI or KpnI (portions indicated by underlining) were used for primers. […]
This enzyme solution and substrate (20 μM) were added to 50 mM Tris-HCl buffer (pH 7.5) containing 0.15 M sodium chloride, 10 mM calcium chloride, 0.05% Brij 35 and 0.02% sodium azide to bring the final volume to 0.1 ml, followed by reacting for 1 hour at 37° C. After stopping the reaction by adding 0.1 ml of 3% acetic acid, enzyme activity was determined by measuring with a fluorophotometer (Labsystems Fluoroskan II) at an excitation wavelength of 330 nm and emission wavelength of 390 nm. […]

In data set [2] the target is aglycanase. Briefly: Aglycanase inhibition test (in vitro). Type of data set: biochemical. The settings on record: aglycanase from bovine nasal septum cartilage culture, aglycan-containing polyacrylamide particles, 37° C. for 2.5 hours. As to the method:
An aglycanase inhibition test can be conducted by, for example, measuring aglycanase activity in the presence or absence of a test compound according to the method of Nagase et al. (H. Nagase and J. F. Woessner, Analytical Biochemistry, vol. 107, 385-392, 1980).
The enzyme used for measurement of aglycanase activity can be extracted from mammalian cartilage tissue itself or from its cultured medium. Extraction is performed by combining various types of chromatography, and the activity of aglycanase in the purification process can be detected by adding substrate (aglycan) to an eluted fraction and testing whether or not the substrate is cleaved. Whether or not the substrate is cleaved can be determined by performing imnunoblotting for the reaction liquid using an antibody that binds to the epitope, CNLeNIEGE, that is produced by cleavage of aglycan (substrate) by aglycanase (enzyme). It should be noted that antibody that binds to CNLeNIEGE can be prepared according to the method of Sandy et al. (J. D. Sandy et al., Journal of Biological Chemistry, vol. 270, 2550-2556, 1995).
Bovine nasal septum cartilage was cultured for 7 days at 37° C. in the presence of 1 μm retinoic acid in DMEM [containing 20 mM N-2-hydroxyethyl-piperazine-N′-2-ethane sulfonic acid (HEPES), 0.005% bovine serum albumin (BSA), 5 μg/ml insulin-transferrin sodium selenite media supplement, 1% penicillin and 1% streptomycin] while changing the medium once a day. The culture liquid collected from day 3 to day 7 was subjected to chromatography [carrier: Q-sepharose (Pharmacia), mobile phase: 20 mM Tris-HCl buffer (pH 7.2) containing 5 mM calcium chloride] and the fraction that passed through the column was collected. This was then subjected to additional chromatography [carrier: Zn-chelating sepharose (Pharmacia), mobile phase: Tris-HCl buffer (pH 7.2) containing 5 mM calcium chloride and 0.5 M sodium chloride], followed by elution using imidazole as the mobile phase. The fraction of the resulting eluted fractions that was confirmed to have aglycanase activity was collected. Moreover, this was subjected to additional chromatography [carrier: LCA-agarose (Honen Corporation), mobile phase: 20 mM aqueous solution of 2-(N-morpholino)ethanesulfonic acid (pH 6.5) containing 5 mM calcium chloride and 0.25 M sodium chloride], followed by elution using 2-methylmannopyranoside as the mobile phase. The fraction of the resulting eluted fractions that was confirmed to have aglycanase activity was collected, and this fraction was used as the enzyme liquid for measurement of aglycanase activity.
Separate from the above, antibody that binds with CNLeNIEGE was prepared according to the method of Sandy et al. (J. D. Sandy et al., Journal of Biological Chemistry, vol. 270, 2550-2556, 1995), and this antibody was used in immunoblotting to detect aglycanase activity in the above-mentioned purification process of the aglycanase. Immunoblotting was performed in accordance with conventional methods.
Measurement of activity was performed using a modification of the protease activity measurement method that uses polyacrylamide particles of Nagase et al. (H. Nagase and J. F. Woessner, Analytical Biochemistry, vol. 107, 385-392, 1980).
The aglycan used for the substrate was isolated from bovine nasal septum cartilage in accordance with cesium chloride sedimentation equilibrium centrifugation (New Biochemical Experimentation Course, 3, Saccharides II, 4-7, Tokyo Kagaku Dojin Publishing, 1991). By using this aglycan, polyacrylamide particles containing aglycan were prepared in accordance with the method of Nagase et al. (H. Nagase and J. F. Woessner, Analytical Biochemistry, vol. 107, 385-392, 1980). Namely, aglycan (dry weight: 480 mg) was first added to 28 ml of liquid A [1 M Tris-HCl buffer (pH 8.5) containing 0.2% N,N,N′,N′-tetramethylethylenediamine (TEMED)] and the mixture was stirred at 4° C. for 1 hour. […]

Data on nine compounds can be found in patent publication US6673804B1, “Sulfonamide derivatives” (Sankyo Company, Limited, priority 1998, dated 2004).

pIC50: −log10 of the molar value.

On to `CN([C@H](CCn1c(=O)[nH]c2ccsc2c1=O)C(=O)NO)S(=O)(=O)c1ccc(Oc2cccc(Cl)c2)cc1` [Example 140, Nα-[4-(3-Chlorophenoxy)benzenesulfonyl]-N-hydroxy-Nα-methyl-2(R)-[2-(thieno[3,2-d]pyrimidin-2,4-dione-3-yl)ethyl]glycinamide], for which the pIC50 (commonly the negative decadic logarithm of the IC50, by convention in mol/L) was 9.49 in data set [1] and 8.66 in data set [2].
In the case of `CN([C@H](CCN1C(=O)c2ccccc2C1=O)C(=O)NO)S(=O)(=O)c1ccc(Oc2ccccc2)cc1` [Example 72, N-Hydroxy-Nα-methyl-Nα-(4-phenoxybenzensulfonyl)-2(R)-(2-phthalimidoethyl)glycinamide], in data set [2], the pIC50 was 8.31.
For `Cc1[nH]c(=O)n(CCC(C(=O)NO)N(C)S(=O)(=O)c2ccc(Oc3ccccc3)cc2)c(=O)c1C` (racemic) [Example 18, (±)-2-[2-(5,6-Dimethylpyrimidin-2,4-dione-3-yl)ethyl]-N-hydroxy-Nα-methyl-Nα-(4-phenoxybenzenesulfonyl)glycinamide], the pIC50 in data set [2] was 8.12.
In the case of `CN([C@H](CCn1c(=O)[nH]c2ccccc2c1=O)C(=O)NO)S(=O)(=O)c1ccc(Oc2cccc(Cl)c2)cc1` [Example 139, Nα-[4-(3-Chlorophenoxy)benzenesulfonyl]-N-hydroxy-Nα-methyl-2(R)-[2-(quinazolin-2,4-dione-3-yl)ethyl]glycinamide], the pIC50 in data set [1] is 9.37; in data set [2], 8.43.
In data set [2], `CN(C(CCn1c(=O)[nH]c2ccccc2c1=O)C(=O)NO)S(=O)(=O)c1ccc(Oc2ccccc2)cc1` (racemic) [Example 6, (±)-N-Hydroxy-Nα-methyl-Nα-(4-phenoxybenzenesulfonyl)-2-[2-(quinazolin-2,4-dione-3-yl)ethyl]glycinamide] had a pIC50 of 8.15.
On the same count and under the same terms, the figure for `CN([C@H](CCN1C(=O)c2ccccc2C1=O)C(=O)NO)S(=O)(=O)c1ccc(Oc2cccc(Cl)c2)cc1` [Example 141, Nα-[4-(3-Chlorophenoxy)benzenesulfonyl]-N-hydroxy-Nα-methyl-2(R)-(2-phthalimidoethyl)glycinamide] is 8.54.
Regarding `CN(C(CCN1C(=O)c2cc(Cl)c(Cl)cc2C1=O)C(=O)NO)S(=O)(=O)c1ccc(Oc2ccccc2)cc1` (racemic) [Example 84, (±)-2-[2-(4,5-Dichlorophthalimido)ethyl]-N-hydroxy-Nα-methyl-Nα-(4-phenoxybenzenesulfonyl)glycinamide], the melting point (usually the temperature of the solid-liquid transition) fell in the range of 155 to 156 °C.
`CN(C(CCn1c(=O)[nH]c2ccsc2c1=O)C(=O)NO)S(=O)(=O)c1ccc(Oc2ccccc2)cc1` (racemic) [Example 42, (±)-N-Hydroxy-Nα-methyl-Nα-(4-phenoxybenzensulfonyl)-2-[2-(thieno[3,2-d]pyrimidin-2,4-dione-3-yl)ethyl]glycinamide]: the pIC50 was 9.33 in data set [1] and 8.27 in data set [2].
Consider `Cc1ccc2c(c1)C(=O)N(CCC(C(=O)NO)N(C)S(=O)(=O)c1ccc(Oc3ccccc3)cc1)C2=O` (racemic) [Example 86, (±)-N-Hydroxy-Nα-methyl-2-[2-(4-methylphthalimido)ethyl]-Nα-(4-phenoxybenzenesulfonyl)glycinamide], for which the melting point was in the range of 157 to 158 °C.
